# Measurements: patent US6852726B2, “Substituted indoles as alpha-1 agonists” (Syntex LLC, priority 2002, dated 2005)
# System: not given
# Assay: not given
# Settings: not given
row,Molecule,melting point [°C]
1,"Cc1c(S(C)(=O)=O)c2cccc(Cl)c2n1CC1=NCCN1 [Example 4, 7-Chloro-1-(4,5-dihydro-1H-imidazol-2-ylmethyl)-3-methanesulfonyl-2-methyl-1H-indole]",221 to 223

# Target: T1, alpha-1A adrenoceptors expressed in CHO-K1 cells (clone 13) (Homo sapiens, UniProt P35348)
# T1 construct: expressed in transfected cells; host or cells: CHO-K1 (clone 13)
# T1 sequence (P35348 1-466): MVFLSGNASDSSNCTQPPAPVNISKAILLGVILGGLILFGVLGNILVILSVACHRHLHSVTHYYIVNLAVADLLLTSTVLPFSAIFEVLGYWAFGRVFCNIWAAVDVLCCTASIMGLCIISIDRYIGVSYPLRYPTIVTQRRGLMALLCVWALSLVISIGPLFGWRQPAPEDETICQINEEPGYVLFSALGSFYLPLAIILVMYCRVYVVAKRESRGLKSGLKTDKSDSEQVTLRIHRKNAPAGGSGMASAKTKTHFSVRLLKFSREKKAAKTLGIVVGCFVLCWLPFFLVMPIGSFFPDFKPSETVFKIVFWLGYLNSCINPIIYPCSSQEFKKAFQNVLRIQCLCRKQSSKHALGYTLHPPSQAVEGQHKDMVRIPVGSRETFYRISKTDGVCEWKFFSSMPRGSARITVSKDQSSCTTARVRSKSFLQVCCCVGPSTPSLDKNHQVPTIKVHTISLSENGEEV
# Assay: Functional assay for alpha-1A/L agonist activity (FLIPR, Fluo-3 intracellular calcium)
# Assay type: cell-based
# Settings: CHO-K1 cells expressing alpha-1A adrenoceptors, FLIPR calcium fluorescence, room temperature
# From the text: The inhibitory activity of compounds of this invention in vitro was examined using fluorescent dye determination of intracellular calcium concentrations as described in Example 6.
# Functional Assay for Alpha-1A/L Agonist Activity
# The inhibitory activity of compounds of this invention in vitro was examined using fluorescent dye determination of intracellular calcium concentrations.
# Chinese hamster ovary cells CHO-K1 expressing the alpha-1A adrenoceptors (clone 13) are washed 4 times (approx. 300 μL/well) with fluorometric imaging plate reader (FLIPR) buffer (Hank's buffered saline solution (HBSS), 2 mM CaCl2, 10 mM HEPES, 2,5 mM probenecid, 100 μM ascorbic acid), with a final volume of 150 μL/well. Cells are loaded with 50 μL/well of 8 μM Fluo-3 AM (Molecular Probes, Eugene, Oreg.), for a final concentration of 2 μM Fluo-3 AM. Cells are then incubated for 60 min at 37° C. Following dye loading, cells are washed 4 times (approx. 300 μL/well) with FLIPR buffer with a final volume of 150 μL/well.
# The Test compound, control compound and reference compound are run in quadruplicate, 8-point curves on each plate with a final assay concentration range of 10^−4M to 10^−11M for each compound. All compounds are dissolved in DMSO at 10 mM, and serially diluted in FLIPR buffer.
# The assay plate is placed in the FLIPR incubation chamber and a baseline fluorescence measurement (excitation @ 488 nm and emission @ 510-570 nm) is obtained (15 sec interval). An experimental run is then commenced. The reaction is started with the addition of 50 μL/well (at 4× final concentration) of test, control, or reference compound solution from the agonist plate to the assay plate to all 96 wells simultaneously. Fluorescence is measured for 120 sec at 1 sec intervals. Then, a second addition of 5 μM ionomycin (50 μL/well from 5× concentration ionomycin plate) is added to the assay plate. Fluorescence is measured for 30 sec at 1 sec intervals. All experiments are conducted at room temperature.
# For each assay plate, responses (increase in peak fluorescence) in each well following addition of agonist (test, control and reference) are determined. These responses may be expressed as raw CFU (Corrected Fluorescence Units), as a % maximum ionomycin response or other unit as determined by the investigator.
# For test compound, control compound (Noerepinephrine (NE) bitartrate), and reference compound, the concentration producing a 50% increase in control response (EC50) is determined using iterative curve-fitting methods. Excel spreadsheet or Kaleidagraph software are used to fit data to the general logistic function (E=B+Emax·A^nH/A^nH+EC50^nH), where B is the corrected baseline fluorescence units (defined as zero), A is the concentration of agonist added and nH is the Hill slope (constrained to unity). EC50 values and maxima (Emax) for each curve can be estimated objectively using this software.
# In addition the intrinsic activity (α) is determined. Intrinsic activity is defined as the maximum response to test agonist divided by the maximum response to a full agonist acting through the same receptor. For these experiments, the full agonist is defined as Norepinephrine (NE) bitartrate (control).
Molecule,pEC50,EC50 [nM]
"6-Bromo-1-(4,5-dihydro-1H-imidazol-2-ylmethyl)-1H-indole-3-carboxylic acid dimethylamide [Example 17]",8.34,
"Cc1c(S(C)(=O)=O)c2c(S(C)(=O)=O)cccc2n1CC1=NCCN1 [1-(4,5-Dihydro-1H-imidazol-2-ylmethyl)-3,4-bis-methanesulfonyl-2-methyl-1H-indole]",,1050
"Cc1c(S(C)(=O)=O)c2ccc(S(C)(=O)=O)cc2n1CC1=NCCN1 [1-(4,5-Dihydro-1H-imidazol-2-ylmethyl)-3,6-bis-methanesulfonyl-2-methyl-1H-indole]",,60300
"CS(=O)(=O)c1cn(CC2=NCCN2)c2ccccc12 [1-(4,5-Dihydro-1H-imidazol-2-ylmethyl)-3-methanesulfonyl-1H-indole]",,2.29
"Cc1c(S(C)(=O)=O)c2ccccc2n1CC1=NCCN1 [1-(4,5-Dihydro-1H-imidazol-2-ylmethyl)-3-methanesulfonyl-2-methyl-1H-indole]",,0.832
"Cc1c(S(C)(=O)=O)c2cccc(C(F)(F)F)c2n1CC1=NCCN1 [1-(4,5-Dihydro-1H-imidazol-2-ylmethyl)-3-methanesulfonyl-2-methyl-7-trifluoromethyl-1H-indole]",,141
"COc1ccc2c(S(C)(=O)=O)c(C)n(CC3=NCCN3)c2c1 [1-(4,5-Dihydro-1H-imidazol-2-ylmethyl)-3-methanesulfonyl-6-methoxy-2-methyl-1H-indole]",,10
"Cc1ccc2c(c1)c(S(C)(=O)=O)c(C)n2CC1=NCCN1.Cl [1-(4,5-Dihydro-1Hmidazol-2-ylmethyl)-3-methanesulfonyl-2,5-dimethyl-1H-indole]",,23.4
"CN(C)S(=O)(=O)c1cn(CC2=NCCN2)c2cc(Cl)ccc12 [6-Chloro-1-(4,5-dihydro-1H-imidazol-2-ylmethyl)-1H-indole-3-sulfonic acid dimethylamide]",,9.12

# Same assay, conditions: maximum response relative to full agonist norepinephrine bitartrate; CHO-K1 alpha-1A cells
row,Molecule,IA (intrinsic activity)
1,"6-Bromo-1-(4,5-dihydro-1H-imidazol-2-ylmethyl)-1H-indole-3-carboxylic acid dimethylamide [Example 17]",1.02
2,"Cc1c(S(C)(=O)=O)c2c(S(C)(=O)=O)cccc2n1CC1=NCCN1 [1-(4,5-Dihydro-1H-imidazol-2-ylmethyl)-3,4-bis-methanesulfonyl-2-methyl-1H-indole]",1.04
3,"Cc1c(S(C)(=O)=O)c2ccc(S(C)(=O)=O)cc2n1CC1=NCCN1 [1-(4,5-Dihydro-1H-imidazol-2-ylmethyl)-3,6-bis-methanesulfonyl-2-methyl-1H-indole]",0.18
4,"CS(=O)(=O)c1cn(CC2=NCCN2)c2ccccc12 [1-(4,5-Dihydro-1H-imidazol-2-ylmethyl)-3-methanesulfonyl-1H-indole]",1.07
5,"Cc1c(S(C)(=O)=O)c2ccccc2n1CC1=NCCN1 [1-(4,5-Dihydro-1H-imidazol-2-ylmethyl)-3-methanesulfonyl-2-methyl-1H-indole]",1.00
6,"Cc1c(S(C)(=O)=O)c2cccc(C(F)(F)F)c2n1CC1=NCCN1 [1-(4,5-Dihydro-1H-imidazol-2-ylmethyl)-3-methanesulfonyl-2-methyl-7-trifluoromethyl-1H-indole]",0.96
7,"COc1ccc2c(S(C)(=O)=O)c(C)n(CC3=NCCN3)c2c1 [1-(4,5-Dihydro-1H-imidazol-2-ylmethyl)-3-methanesulfonyl-6-methoxy-2-methyl-1H-indole]",1.05
8,"Cc1ccc2c(c1)c(S(C)(=O)=O)c(C)n2CC1=NCCN1.Cl [1-(4,5-Dihydro-1Hmidazol-2-ylmethyl)-3-methanesulfonyl-2,5-dimethyl-1H-indole]",0.93
9,"CN(C)S(=O)(=O)c1cn(CC2=NCCN2)c2cc(Cl)ccc12 [6-Chloro-1-(4,5-dihydro-1H-imidazol-2-ylmethyl)-1H-indole-3-sulfonic acid dimethylamide]",1.00
